Measured values taken from ChEMBL document CHEMBL3297661, “1-Substituted-5-[(3,5-dinitrobenzyl)sulfanyl]-1H-tetrazoles and their isosteric analogs: A new class of selective antitubercular agents active against drug-susceptible and multidrug-resistant mycobacteria” (Eur J Med Chem, 2014).
Values after ≈ are worked out from the molar mass of the structure shown.

System: not listed separately
Assay: Cytotoxicity against MDCK2 cells assessed as reduction in cell viability after 48 hrs by MTT assay
Format: cell-based
Settings: Canis lupus familiaris, MDCK-II

Row | Compound | IC50
1 | O=[N+]([O-])c1cc(C[Se]c2nnnn2C2CCCCC2)cc([N+](=O)[O-])c1 | 19 µM

System: Klebsiella pneumoniae
Assay: Antibacterial activity against extended spectrum beta-lactamase producing Klebsiella pneumoniae J 14368/08 after 24 hrs by broth microdilution method
Format: functional
Settings: J 14368/08, 24 h

Row | Compound | IC95
2 | O=[N+]([O-])c1cc(C[Se]c2nnnn2C2CCCCC2)cc([N+](=O)[O-])c1 | > 500 µM

System: Escherichia coli
Assay: Antibacterial activity against Escherichia coli ATCC 8739 after 24 hrs by broth microdilution method
Format: functional
Settings: ATCC 8739, ATCC 8739, 24 h

Row | Compound | IC95
3 | O=[N+]([O-])c1cc(C[Se]c2nnnn2C2CCCCC2)cc([N+](=O)[O-])c1 | > 500 µM

System: HeLa
Assay: Cytotoxicity against human HeLa cells assessed as reduction in cell viability after 48 hrs by MTT assay
Format: cell-based
Settings: not given

Row | Compound | IC50
4 | O=[N+]([O-])c1cc(C[Se]c2nnnn2C2CCCCC2)cc([N+](=O)[O-])c1 | > 30 µM

System: not listed separately
Assay: Cytotoxicity against human HuH7 cells assessed as reduction in cell viability after 48 hrs by MTT assay
Format: cell-based
Settings: Huh-7, 48 h

Row | Compound | IC50
5 | O=[N+]([O-])c1cc(C[Se]c2nnnn2C2CCCCC2)cc([N+](=O)[O-])c1 | > 30 µM

System: Staphylococcus aureus
Assay: Antibacterial activity against Staphylococcus aureus ATCC 6538 after 48 hrs by broth microdilution method
Format: functional
Settings: ATCC 6538, 48 h

Row | Compound | IC95
6 | O=[N+]([O-])c1cc(C[Se]c2nnnn2C2CCCCC2)cc([N+](=O)[O-])c1 | > 500 µM

System: Klebsiella pneumoniae
Assay: Antibacterial activity against Klebsiella pneumoniae D 11750/08 after 24 hrs by broth microdilution method
Format: functional
Settings: D 11750/08, 24 h

Row | Compound | IC95
7 | O=[N+]([O-])c1cc(C[Se]c2nnnn2C2CCCCC2)cc([N+](=O)[O-])c1 | > 500 µM

System: Trichosporon asahii
Assay: Antifungal activity against Trichosporon asahii 1188 after 24 hrs by broth microdilution method
Format: functional
Settings: Trichosporon asahii, 1188, 24 h

Row | Compound | IC80
8 | O=[N+]([O-])c1cc(C[Se]c2nnnn2C2CCCCC2)cc([N+](=O)[O-])c1 | > 500 µM

System: Candida tropicalis
Assay: Antifungal activity against Candida tropicalis 156 after 24 hrs by broth microdilution method
Format: functional
Settings: Candida tropicalis, 156, 24 h

Row | Compound | IC80
9 | O=[N+]([O-])c1cc(C[Se]c2nnnn2C2CCCCC2)cc([N+](=O)[O-])c1 | > 500 µM

System: HepG2
Assay: Cytotoxicity against human HepG2 cells assessed as reduction in cell viability after 48 hrs by MTT assay
Format: cell-based
Settings: HepG2, 48 h

Row | Compound | IC50
10 | O=[N+]([O-])c1cc(C[Se]c2nnnn2C2CCCCC2)cc([N+](=O)[O-])c1 | > 30 µM

System: Enterococcus faecalis
Assay: Antibacterial activity against Enterococcus faecalis J 14365/08 after 48 hrs by broth microdilution method
Format: functional
Settings: J 14365/08, 48 h

Row | Compound | IC95
11 | O=[N+]([O-])c1cc(C[Se]c2nnnn2C2CCCCC2)cc([N+](=O)[O-])c1 | > 500 µM

System: Trichophyton mentagrophytes
Assay: Antifungal activity against Trichophyton mentagrophytes 445 after 72 hrs by broth microdilution method
Format: functional, organism-based
Settings: Trichophyton mentagrophytes, 445, 72 h

Row | Compound | IC50
12 | O=[N+]([O-])c1cc(C[Se]c2nnnn2C2CCCCC2)cc([N+](=O)[O-])c1 | > 500 µM

System: Mycobacterium kansasii
Assay: Antimycobacterial activity against Mycobacterium kansasii 6509/96 after 7 days by micromethod
Format: functional
Settings: 6509/96, 168 h

Row | Compound | MIC
13 | O=[N+]([O-])c1cc(C[Se]c2nnnn2C2CCCCC2)cc([N+](=O)[O-])c1 | 2 µM (≈ 0.823 µg/mL)

System: Pseudomonas aeruginosa
Assay: Antibacterial activity against Pseudomonas aeruginosa ATCC 9027 after 24 hrs by broth microdilution method
Format: functional
Settings: ATCC 9027, 24 h

Row | Compound | IC95
14 | O=[N+]([O-])c1cc(C[Se]c2nnnn2C2CCCCC2)cc([N+](=O)[O-])c1 | > 500 µM

System: Pichia kudriavzevii
Assay: Antifungal activity against Candida krusei E28 after 24 hrs by broth microdilution method
Format: functional
Settings: E28, 24 h

Row | Compound | IC80
15 | O=[N+]([O-])c1cc(C[Se]c2nnnn2C2CCCCC2)cc([N+](=O)[O-])c1 | > 500 µM

System: Trichophyton mentagrophytes
Assay: Antifungal activity against Trichophyton mentagrophytes 445 after 120 hrs by broth microdilution method
Format: functional, organism-based
Settings: Trichophyton mentagrophytes, 445, 120 h

Row | Compound | IC50
16 | O=[N+]([O-])c1cc(C[Se]c2nnnn2C2CCCCC2)cc([N+](=O)[O-])c1 | > 500 µM

System: Enterococcus faecalis
Assay: Antibacterial activity against Enterococcus faecalis J 14365/08 after 24 hrs by broth microdilution method
Format: functional
Settings: J 14365/08, 24 h

Row | Compound | IC95
17 | O=[N+]([O-])c1cc(C[Se]c2nnnn2C2CCCCC2)cc([N+](=O)[O-])c1 | > 500 µM

System: Mycobacterium kansasii
Assay: Antimycobacterial activity against Mycobacterium kansasii 6509/96 after 21 days by micromethod
Format: functional
Settings: 6509/96, 504 h

Row | Compound | MIC
18 | O=[N+]([O-])c1cc(C[Se]c2nnnn2C2CCCCC2)cc([N+](=O)[O-])c1 | 4 µM (≈ 1.65 µg/mL)

System: Mycobacterium kansasii
Assay: Antimycobacterial activity against Mycobacterium kansasii CNCTC My 235/80 after 21 days by micromethod
Format: functional
Settings: CNCTC My 235/80, 504 h

Row | Compound | MIC
19 | O=[N+]([O-])c1cc(C[Se]c2nnnn2C2CCCCC2)cc([N+](=O)[O-])c1 | 2 µM (≈ 0.823 µg/mL)

System: Lichtheimia corymbifera
Assay: Antifungal activity against Absidia corymbifera 272 after 24 hrs by broth microdilution method
Format: functional, organism-based
Settings: Lichtheimia corymbifera, 272, 24 h

Row | Compound | IC50
20 | O=[N+]([O-])c1cc(C[Se]c2nnnn2C2CCCCC2)cc([N+](=O)[O-])c1 | > 500 µM

System: Aspergillus fumigatus
Assay: Antifungal activity against Aspergillus fumigatus 231 after 24 hrs by broth microdilution method
Format: functional, organism-based
Settings: Aspergillus fumigatus, 231, 24 h

Row | Compound | IC50
21 | O=[N+]([O-])c1cc(C[Se]c2nnnn2C2CCCCC2)cc([N+](=O)[O-])c1 | > 500 µM

System: not listed separately
Assay: Cytotoxicity against human HepG2 cells assessed as cell viability at 30 uM after 48 hrs by MTT assay
Format: cell-based
Settings: read-out: Activity

Row | Compound | viability at 48 h, 30 µM
22 | O=[N+]([O-])c1cc(C[Se]c2nnnn2C2CCCCC2)cc([N+](=O)[O-])c1 | 87%

System: Mycobacterium kansasii
Assay: Antimycobacterial activity against Mycobacterium kansasii CNCTC My 235/80 after 14 days by micromethod
Format: functional
Settings: CNCTC My 235/80, 336 h

Row | Compound | MIC
23 | O=[N+]([O-])c1cc(C[Se]c2nnnn2C2CCCCC2)cc([N+](=O)[O-])c1 | 1 µM (≈ 0.411 µg/mL)

System: Klebsiella pneumoniae
Assay: Antibacterial activity against Klebsiella pneumoniae D 11750/08 after 48 hrs by broth microdilution method
Format: functional
Settings: D 11750/08, 48 h

Row | Compound | IC95
24 | O=[N+]([O-])c1cc(C[Se]c2nnnn2C2CCCCC2)cc([N+](=O)[O-])c1 | > 500 µM

System: Candida tropicalis
Assay: Antifungal activity against Candida tropicalis 156 after 48 hrs by broth microdilution method
Format: functional
Settings: Candida tropicalis, 156, 48 h

Row | Compound | IC80
25 | O=[N+]([O-])c1cc(C[Se]c2nnnn2C2CCCCC2)cc([N+](=O)[O-])c1 | > 500 µM
